Data on 6 compounds can be found in patent publication US20130053337A1, “GUANIDINYLATED AMINOGLYCOSIDE-LIPID CONJUGATES” (UNIVERSITY OF MANITOBA, priority 2010, published 2013).

Values after ≈ are worked out from the molar mass of the structure shown. A value given as a limit tells only on which side of the number the result lay.

One data set concerns S. aureus ATCC 29213. Briefly: MIC, broth macrodilution (CLSI). The format is cell-based, Staphylococcus aureus. To be noted: S. aureus ATCC29213. As to the method: (§1) All experiments were performed in duplicate.
(§2) Bacterial isolates studied included both reference strains obtained from the American Type Culture Collection (ATCC) as well as clinical strains obtained from the CAN-ICU study which was a national surveillance study assessing the prevalence of antimicrobial resistant pathogens in Canadian intensive care units (Zhanel et al., 2008). Isolates were kept frozen in skim milk at −80° C. until minimum inhibitory concentration (MIC) testing was carried out. Following two subcultures from frozen stock, the in vitro activities of peptides were determined by macrobroth dilution in accordance with the Clinical and Laboratory Standards Institute (CLSI) 2006 guidelines (Zhanel et al., 2008). Stock solutions of peptides were prepared and dilutions made as described by CLSI. Test tubes contained doubling antimicrobial dilutions of cation adjusted Mueller-Hinton broth and inoculated to achieve a final concentration of approximately 5×10^5 cfu/ml then incubated in ambient air for 24 hours prior to reading. Colony counts were performed periodically to confirm inocula. Quality control was regularly performed using ATCC QC organisms.

Another data set concerns MRSA ATCC 33592. The data set is described as follows: MIC, broth macrodilution (CLSI). To be noted: MRSA ATCC33592. The class given is cell-based, methicillin-resistant Staphylococcus aureus. As to the method: as §1, §2
In data set [1] the test system is S. epidermidis ATCC 14990. The data set is described as follows: MIC, broth macrodilution (CLSI). The format is cell-based, Staphylococcus epidermidis. The following applies: S. epidermidis ATCC14990. As to the method:
as §1, §2

For data set [2], the system named is MRSE CAN-ICU 61589. The data set is described as follows: MIC, broth macrodilution (CLSI). The class given is cell-based, methicillin-resistant Staphylococcus epidermidis. As to the method:
as §1, §2

The test system of the next data set is E. faecalis ATCC 29212. The data set is described as follows: MIC, broth macrodilution (CLSI). The format is cell-based, Enterococcus faecalis. The following applies: E. faecalis ATCC29212. As to the method: as §1, §2
The next data set relates to E. faecium ATCC 27270. Briefly: MIC, broth macrodilution (CLSI). To be noted: E. facium ATCC27270. The class given is cell-based, Enterococcus faecium. As to the method: as §1, §2
In the next data set the test system is S. pneumoniae ATCC 49619. Briefly: MIC, broth macrodilution (CLSI), broth with 5% laked horse blood. The class given is cell-based, Streptococcus pneumoniae. The following applies: S. pneumoniae ATCC49619. On the procedure:
as §1, §2

For data set [3], the system named is E. coli (amikacin MIC 32 mg/L) CAN-ICU 63074. The data set is described as follows: MIC, broth macrodilution (CLSI). The format is cell-based. The following applies: E. coli CAN-ICU 63074. As to the method: as §1, §2
For data set [4], the system named is E. coli (gentamicin-resistant) CAN-ICU 61714. The data set is described as follows: MIC, broth macrodilution (CLSI). The format is cell-based. The following applies: E. coli CAN-ICU 61714. On the procedure:
as §1, §2

The subject of the next data set is E. coli ATCC 25922. The data set is described as follows: MIC, broth macrodilution (CLSI). The following applies: E. coli ATCC25922. The class given is cell-based. As to the method:
as §1, §2

Data set [5] relates to P. aeruginosa (gentamicin-resistant) CAN-ICU 62308. The data set is described as follows: MIC, broth macrodilution (CLSI). The following applies: P. aeruginosa CAN-ICU 62308. The format is cell-based. As to the method: as §1, §2
The next data set has as its system P. aeruginosa ATCC 27853. Briefly: MIC, broth macrodilution (CLSI). The class given is cell-based. The following applies: P. aeruginosa ATCC27853. On the procedure:
as §1, §2

In data set [6] the test system is sheep red blood cell (erythrocytes). Briefly: Hemolytic assay (in vitro toxicity). To be noted: 100 mg/L; sheep erythrocytes; percent hemolysis. As to the method:
Antibacterial activity against Gram-positive and Gram-negative microorganisms was tested via broth macrodilution tests using CLSI methodology (Zhanel et al., 2008). Stock solutions of cationic lipids in water were brought to a concentration of 512 mg/L. Organisms were subcultured and isolated on blood agar, suspended in 3 mL of Mueller-Hinton broth at the turbidity of a […], and diluted to approximately 10^5 cfu/mL before introduction into tubes containing serially diluted lipopeptide antibiotic in Mueller-Hinton broth. Activity testing against S. pneumoniae used broth supplemented with laked horse blood to give 5% horse blood in experimental tubes. Turbidity of lipopeptide solution in broth required creation of control tubes lacking organisms serving as turbidity controls. All tubes were incubated overnight for 16-20 h at 37° C. […] All experiments were performed in duplicate. In-vitro toxicity was determined using a sheep red blood cell hemolytic assay as previously described (Dathe et al., 1996).
In vitro toxicity was determined using a sheep red blood cell (erythrocytes) hemolytic assay (Dathe et al., 1996). […] Erythrocytes were washed and resuspended in Tris buffered saline. The cell suspension was combined with varying concentrations (low to very high) of test and control antimicrobials (e.g., aminoglycosides and APTCs). The samples were centrifuged and the absorbance of the supernatants measured at 540 nm. Tris buffered saline and Triton X were used as negative and positive controls, respectively. The toxicity was assessed by percent hemolysis.

Data set [7] deals with methicillin-resistant S. aureus (MRSA). To be noted: Bera et al., 2008; cited from earlier work.
In data set [8] the test system is E. coli (amikacin MIC 32 mg/L) CAN-ICU 63074. To be noted: E. coli CAN-ICU 63074; Zhanel et al., 2008; cited from earlier work.
Data set [9] deals with MRSE CAN-ICU 61589. To be noted: Zhanel et al., 2008; cited from earlier work.
Data set [10] has as its system E. coli (gentamicin-resistant) CAN-ICU 61714. To be noted: E. coli CAN-ICU 61714; Zhanel et al., 2008; cited from earlier work.
Data set [11] deals with P. aeruginosa (gentamicin-resistant) CAN-ICU 62308. The following applies: P. aeruginosa CAN-ICU 62308; Zhanel et al., 2008; cited from earlier work.

For the compound `CCCCCCCCCCCCCCCC(=O)NCC1OC(OC2C(N)CC(N)C(OC3OC(CN)C(O)C(O)C3O)C2O)C(O)C(N)C1O.O=C(O)C(F)(F)F.O=C(O)C(F)(F)F.O=C(O)C(F)(F)F.O=C(O)C(F)(F)F` (stereo not drawn) [Compound 15, 1,3,6′,3″-Tetraammonium-6″-deoxy-6″-N-(hexadecanoyl)-kanamycin-tetrakis-(trifluoroacetate)], the MIC was found to be 8 µg/mL against S. aureus ATCC 29213; 16 µg/mL with MRSA ATCC 33592; 2 µg/mL in data set [1]; 2 µg/mL against MRSE CAN-ICU 61589 [2]; 8 µg/mL in the data set with E. faecalis ATCC 29212; 8 µg/mL in the data set with E. faecium ATCC 27270. Also, the MIC with S. pneumoniae ATCC 49619 amounted to 64 µg/mL; in [3], 32 µg/mL; in data set [4], 32 µg/mL; in the data set on E. coli ATCC 25922 it was 32 µg/mL; in data set [5] it was 64 µg/mL; against P. aeruginosa ATCC 27853, 64 µg/mL. For the same compound, the “hemolytic activity at 100 mg/L” value in data set [6] was found to be 20%.

For the compound `CCCCCCCCCCCCCCCC(=O)NCC1OC(OC2C(NC(=N)N)CC(NC(=N)N)C(OC3OC(CNC(=N)N)C(O)C(O)C3O)C2O)C(O)C(NC(=N)N)C1O.O=C(O)C(F)(F)F.O=C(O)C(F)(F)F.O=C(O)C(F)(F)F.O=C(O)C(F)(F)F` (stereo not drawn) [Compound 16, 1,3,6′,3″-Tetraammonium-guanidinyl-6″-deoxy-6″-N-(hexadecanoyl)-kanamycin-tetrakis-(trifluoroacetate)], the MIC in the data set with S. aureus ATCC 29213 was 16 µg/mL; against MRSA ATCC 33592 it was 8 µg/mL; in [1], 8 µg/mL; against MRSE CAN-ICU 61589 [2], 8 µg/mL; against E. faecalis ATCC 29212, 16 µg/mL; against E. faecium ATCC 27270, 16 µg/mL. Besides, the minimal inhibitory concentration (MIC) is 128 µg/mL against S. pneumoniae ATCC 49619; 64 µg/mL in data set [3]; 128 µg/mL in data set [4]; 64 µg/mL in the data set with E. coli ATCC 25922; 64 µg/mL in data set [5]; 256 µg/mL with P. aeruginosa ATCC 27853. In [6], the “hemolytic activity at 100 mg/L” value was determined as 6.7%.

`NC[C@@H]1O[C@H](O[C@H]2[C@@H](O)[C@H](O[C@@H]3[C@@H](O)[C@H](N)C[C@H](N)[C@H]3O[C@H]3O[C@H](CN)[C@@H](O)[C@H](O)[C@H]3N)O[C@@H]2CO)[C@H](N)[C@@H](O)[C@@H]1O` [Neomycin B, reference compound]: the MIC with S. aureus ATCC 29213 was found to be 1 µg/mL (≈ 1.63 µM); against MRSA ATCC 33592, 256 µg/mL (≈ 416 µM); in data set [1], 0.25 µg/mL (≈ 0.407 µM); in the data set on MRSE CAN-ICU 61589 [2], 0.5 µg/mL (≈ 0.813 µM); in the data set with S. pneumoniae ATCC 49619, 32 µg/mL (≈ 52.1 µM); in [4], 8 µg/mL (≈ 13 µM). Moreover, the MIC is 4 µg/mL (≈ 6.51 µM) in the data set with E. coli ATCC 25922, 512 µg/mL (≈ 833 µM) in data set [5], 512 µg/mL (≈ 833 µM) against P. aeruginosa ATCC 27853 and 256 µg/mL (≈ 416 µM) in data set [7]. Moreover, in data set [6], the “hemolytic activity at 100 mg/L” value was <0.3%.

With `NCC[C@H](O)C(=O)N[C@@H]1C[C@H](N)[C@@H](O[C@H]2O[C@H](CN)[C@@H](O)[C@H](O)[C@H]2O)[C@H](O)[C@H]1O[C@H]1O[C@H](CO)[C@@H](O)[C@H](N)[C@H]1O` [amikacin], the “MIC (strain description)” value in data set [8] was 32 µg/mL (≈ 54.6 µM).

For the compound `Cc1nnc(SCC2=C(C(=O)O)N3C(=O)[C@@H](NC(=O)Cn4cnnn4)[C@H]3SC2)s1` [cefazolin], the “MIC (strain description)” value with MRSE CAN-ICU 61589 [9] was > 32 µg/mL.

In the case of Gentamicin [reference compound], the MIC with S. aureus ATCC 29213 came out at 1 µg/mL; with MRSA ATCC 33592, 2 µg/mL; in data set [1] it was 0.25 µg/mL; with MRSE CAN-ICU 61589 [2], 32 µg/mL; in the data set on S. pneumoniae ATCC 49619 it was 4 µg/mL; in [3] it was 8 µg/mL. Also, the MIC in [4] is 128 µg/mL; against E. coli ATCC 25922, 1 µg/mL; in [5], 128 µg/mL; with P. aeruginosa ATCC 27853, 8 µg/mL. Also, the “MIC (strain description)” value in [10] and in data set [11] was > 32 µg/mL throughout.

A word on the MIC: it is the lowest concentration that inhibits growth of the organism.
